According to patent publication US9371286B2, “Pharmaceutical composition with enhanced efficacy for inhibiting angiogenesis” (INDUSTRY-ACADEMIC COOPERATION FOUNDATION, YONSEI UNIVERSITY, priority 2011, dated 2016):

Tests used:
[1] = test system: HIF-1α; assay: HIF-1α stability analysis (western blot, hypoxia); type: cell-based; conditions: HepG2 cells pretreated 30 minutes, then 1% O2 for 4 hours; for IC50: HIF-1α protein level by western blot, read-out: IC50 values of respective compounds on HIF-1 α; for hypoxia-induced HIF-1α protein accumulation: western blot
Experimental: HepG2 cells were pretreated with indicated concentrations of the synthetic derivatives for 30 minutes and then exposed to 1% O2 for 4 hours. HIF-1α and tubulin protein levels were analyzed using western blot analysis.

[2] = biological target: T1, UQCRB (Homo sapiens, UniProt P14927); assay: Surface plasmon resonance (BIAcore) competitive binding analysis; conditions: for binding efficiency of UQCRB to biotinylated terpestacin (BT) after co-incubation: competitor 25 μM incubated with purified UQCRB protein 25 μM, BIAcore 2000; for direct binding to UQCRB: concluded from SPR competition with biotinylated terpestacin
T1 sequence (P14927 1-111): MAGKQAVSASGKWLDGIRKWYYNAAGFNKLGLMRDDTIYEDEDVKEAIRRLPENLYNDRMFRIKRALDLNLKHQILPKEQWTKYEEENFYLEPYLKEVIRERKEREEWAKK
Experimental: SPR analysis was performed to analyze the binding of the compounds to UQCRB. Control biotin and biotinylated terpestacin (BT) were sequentially immobilized onto the surface of a streptavidin-coated sensor chip and the apparent binding affinities were calculated by subtraction of resonance values of UQCRB binding to control biotin from those of UQCRB binding to BT. For competitive binding analysis, the compounds were each incubated with the UQCRB protein, and then the complexes were injected into flow cells of the sensor chip.
In order to further investigate the binding of A1893 and A1938 to UQCRB, the present inventors performed SPR (BIAcore) analysis. Control biotin and biotinylated terpestacin were sequentially immobilized onto the surface of a streptavidin-coated sensor chip. Competitive binding molecules (A1893 and A1938, 25 μM) were incubated with the purified UQCRB protein (25 μM) in the buffer (10 mM HEPES, 150 mM NaCl, 3 mM EDTA (pH 7.4)), and then UQCRB-competitive binding molecule complexes were injected onto the sensor chip at a flow rate of 30 μl/min. The surface of the sensor chip was regenerated by the injection of 5 μl of the regeneration buffer (50 mM NaOH). Molecular interaction analysis was performed using the BIAcore 2000 system (BIAcore AB), and the apparent binding affinities were calculated by the subtraction of resonance values of UQCRB binding to control biotin from those of UQCRB binding to biotinylated terpestacin. For competitive binding analysis, terpestacin and the compounds of the present invention were each incubated with the UQCRB protein, and then the complexes were injected into flow cells of the sensor chip.

[3] = test system: HUVECs; assay: Invasiveness analysis (Transwell, VEGF-induced); type: cell-based, human; conditions: VEGF 30 ng/ml, 2.5 μM and 5 μM, 18 hours
Experimental: (§1) Serum-starved HUVECs were treated with VEGF (30 ng/mL) with or without A1893 or A1938 and then the in vitro angiogenesis analysis was performed.
Serum-starved human umbilical vein endothelial cells (HUVECs) were treated with VEGF with or without A1893 or A1938, and then the in vitro angiogenesis analysis was performed. The invasiveness of HUVECs was investigated using the Transwell chamber system with 8.0-μm pore-sized polycarbonate filter (Corning Costar). First, a lower portion of the filter was coated with 10 μl gelatin (10 mg/ml) for 1 hour, and an upper portion of the filter was coated with 10 μl Matrigel (3 mg/ml) for 2 hours. Then, 600 μl of the EBM-2 medium was put into the Transwell, and then, VEGF (30 ng/ml) and the compound of the present invention DPCN (2.5 μM and 5 μM) were added thereto. The coated filter was placed on the Transwell, and HUVECs (1×10^5 cells/well) were inoculated on the upper portion of the filter, following by incubation for 18 hours. After that, the cells were fixed with 70% methanol, and then stained with hematoxylin/eosin. Then, the total number of invaded cells was measured using an optical microscope at 100× magnification.

[4] = test system: HUVECs; assay: Tube formation analysis on Matrigel; type: cell-based, human; conditions: VEGF 30 ng/ml, 2.5 μM and 5 μM, 8 hours
Experimental: as §1
Tube formation analysis was performed using HUVECs growing on Matrigel (Collaborative Biomedical Products). The 48-well plate was coated with 150 μl Matrigel, followed by polymerization at 37 for 2 hours. Then, human umbilical vein endothelial cells (HUVECs, 1×10^5 cells/well) were inoculated on Matrigel, and then VEGF (30 ng/ml) and the compound of the present invention DPCN (2.5 μM and 5 μM) were added thereto. The morphological change of cells was observed while the cells were incubated at room temperature for 8 hours. Tube formation was quantified by measuring the number of connected cells in randomly selected fields and dividing the measured number by the total number of cells in the same field.

[5] = test system: HepG2 cells; assay: Mitochondrial ROS generation analysis (DCF fluorescence); type: cell-based; conditions: HepG2 cells pretreated 30 minutes, then 1% O2 for 10 minutes
Experimental: Intracellular ROS levels were determined by the DCF fluorescence. HepG2 cells were pretreated with the compounds for 30 minutes, and then exposed to 1% O2 for 10 minutes. A1893 and A1938 suppressed hypoxia-induced mitochondrial ROS generation, which confirmed that A1893 and A1938 modulate the O2 sensing function of UQCRB.
The increase in ROS generation due to complex III during hypoxia triggers HIF-1α stabilization, and consequently mediates the expression of its target genes such as VEGF. UQCRB, which is an important component in mitochondrial complex III, acts as an O2 sensor and mediates hypoxia-induced tumor angiogenesis. In order to determine whether anti-angiogenic activity of A1893 and A1938 is associated with the modulation of the O2 sensing function of UQCRB, the present inventors investigated the mitochondrial ROS-mediated hypoxic signal transmission procedure of A1893 and A1938. HepG2 liver cancer cells were pretreated with A1893 and A1938 for 30 minutes, and then exposed to 1% O2 for 10 minutes. Intracellular ROS levels were determined by the DCF fluorescence. A1893 and A1938 suppressed the hypoxia-induced mitochondrial ROS generation in HepG2 cells in a dose-dependent manner (FIG. 5).

[6] = test system: HUVECs; assay: Viability of endothelial cells; type: cell-based, human
[7] = stated with the invasion analysis
[8] = stated with the tube formation analysis

Row | SMILES | IC50 [1] | other results
1 | O=S(=O)(Nc1ccc(O)cc1F)c1ccc(-c2ccccc2)cc1 [A2008, biphenyl-4-sulfonic acid (2-fluoro-4-hydroxy-phenyl)-amide] | 5 µM | –
2 | O=[N+]([O-])c1cc(O)ccc1NS(=O)(=O)c1ccc(-c2ccccc2)cc1 [A2038, biphenyl-4-sulfonic acid (2-nitro-4-hydroxy-phenyl)-benzene-sulfonamide] | 5 µM | –
3 | CC(C)(C)c1ccc(S(=O)(=O)Nc2ccc(O)cc2)cc1 [A1893, 4-tert-butyl-N-(4-hydroxy-phenyl)-benzene-sulfonamide] | 5 µM | hypoxia-induced HIF-1α protein accumulation [1]: greatly reduced; binding efficiency of UQCRB to biotinylated terpestacin (BT) after co-incubation [2]: significantly decreased; direct binding to UQCRB [2]: directly bind to UQCRB; VEGF-induced invasion of HUVECs [3]: inhibited VEGF-induced invasion; tube formation of HUVECs [4]: inhibited the tube formation; hypoxia-induced mitochondrial ROS generation [5]: suppressed; viability of endothelial cells [6, 7]: without affecting viability; viability of endothelial cells [6, 8]: without affecting viability
4 | O=S(=O)(Nc1ccc(O)cc1)c1ccc(-c2ccccc2)cc1 [A1938, biphenyl-4-sulfonic acid (4-hydroxy-phenyl)-amide] | 5 µM | hypoxia-induced HIF-1α protein accumulation [1]: greatly reduced; binding efficiency of UQCRB to biotinylated terpestacin (BT) after co-incubation [2]: significantly decreased; direct binding to UQCRB [2]: directly bind to UQCRB; VEGF-induced invasion of HUVECs [3]: inhibited VEGF-induced invasion; tube formation of HUVECs [4]: inhibited the tube formation; hypoxia-induced mitochondrial ROS generation [5]: suppressed; viability of endothelial cells [6, 7]: without affecting viability; viability of endothelial cells [6, 8]: without affecting viability
5 | CC(C)(C)c1ccc(S(=O)(=O)Nc2ccc(O)cc2[N+](=O)[O-])cc1 [A2037, 4-tert-butyl-N-(2-nitro-4-hydroxy-phenyl)-benzene-sulfonamide] | 10 µM | –
6 | O=S(=O)(Nc1cc(Cl)c(O)c(Cl)c1)c1ccc2ccccc2c1 [A2044, naphthalene-3-sulfonic acid (3,5-dichloro-4-hydroxy-phenyl)-amide] | 10 µM | –
7 | C/C1=C\C[C@]2(C)C(=O)C(O)=C([C@H](C)CO)[C@H]2C/C=C(\C)[C@@H](O)CC/C(C)=C/CC1 [terpestacin, reference compound] | – | binding efficiency of UQCRB to biotinylated terpestacin (BT) after co-incubation [2]: significantly decreased
8 | O=S(=O)(Nc1cccc(O)c1)c1ccc(-c2ccccc2)cc1 [A2033, biphenyl-4-sulfonic acid (3-hydroxy-phenyl)-amide] | 5 µM | –
9 | O=S(=O)(Nc1cc(Cl)c(O)c(Cl)c1)c1ccc(-c2ccccc2)cc1 [A2043, biphenyl-4-sulfonic acid (3,5-dichloro-4-hydroxy-phenyl)-amide] | 10 µM | –
10 | CC(C)(C)c1ccc(S(=O)(=O)Nc2cc(Cl)c(O)c(Cl)c2)cc1 [A2006, 4-tert-butyl-N-(3,5-dichloro-4-hydroxy-phenyl)-benzene-sulfonamide] | 10 µM | –
11 | O=S(=O)(NCCc1ccc(O)cc1)c1ccc(-c2ccccc2)cc1 [A2060, biphenyl-4-sulfonic acid [2-(4-hydroxy-phenyl)-ethyl]-amide] | 10 µM | –
12 | CC(C)(C)c1ccc(S(=O)(=O)Nc2ccc(O)cc2F)cc1 [A2007, 4-tert-butyl-N-(2-fluoro-4-hydroxy-phenyl)-benzene-sulfonamide] | 10 µM | –
13 | Cc1cc(NS(=O)(=O)c2ccc(-c3ccccc3)cc2)ccc1O [A2040, biphenyl-4-sulfonic acid (4-hydroxy-3-methyl-phenyl)-amide] | 5 µM | –
14 | Cc1cc(NS(=O)(=O)c2ccc(-c3ccccc3)cc2)ccc1O [A2041, biphenyl-4-sulfonic acid (4-hydrox-3-methyl-phenyl)-amide] | 10 µM | –

Continued by falling IC50 [1], values first:

Row | IC50 [1] | SMILES | other results
15 | 10 µM | CC(C)(C)c1ccc(S(=O)(=O)Nc2ccc(O)cc2Cl)cc1 [A2000, 4-tert-butyl-N-(2-chloro-4-hydroxy-phenyl)-benzene-sulfonamide] | –
16 | 10 µM | CC(C)(C)c1ccc(S(=O)(=O)Nc2ccc(O)c(F)c2)cc1 [A2010, 4-tert-butyl-N-(3-fluoro-4-hydroxy-phenyl)-benzene-sulfonamide] | –
17 | 10 µM | CC(C)(C)c1ccc(S(=O)(=O)Nc2ccc(O)c(Cl)c2)cc1 [A2003, 4-tert-butyl-N-(3-chloro-4-hydroxy-phenyl)-benznene-sulfonamide] | –
18 | 10 µM | O=S(=O)(NC1CCC(CCO)CC1)c1ccc2ccccc2c1 (stereo not drawn) [A2069, naphthalene-2-sulfonic acid [4-(2-hydroxy-ethyl)-cyclohenxyl]-amide] | –
19 | 10 µM | CCc1ccc(S(=O)(=O)Nc2cccc3ccc(O)cc23)cc1 [A1891, 4-ethyl-N-(7-hydroxy-naphthalen-1-yl)-benzene-sulfonamide] | –
20 | 5 µM | O=S(=O)(Nc1ccc(O)cc1Cl)c1ccc(-c2ccccc2)cc1 [A2001, biphenyl-4-sulfonic acid (2-chloro-4-hydroxy-phenyl)-amide] | –
